Assay results taken from PMC7728077, “Double-Headed Cationic Lipopeptides: An Emerging Class of Antimicrobials” (International Journal of Molecular Sciences, 2020).
Peptide text beside a SMILES is read from it. * marks the point of attachment. Palmitoyl = CCCCCCCCCCCCCCCC(=O)*

Experiments:
[1] = NMR DOSY, 700 MHz
Procedure: NMR spectra were recorded on a Bruker AVANCE III 700 MHz spectrometer. The size of lipopeptide assemblies was determined by an NMR method measuring the self-diffusion coefficient (DOSY experiments). The lipopeptide self-diffusion coefficient, D, was measured by attenuation of the spin-echo signal intensity (I) as a function of gradient amplitude (g), expressed by the Stejskal–Tanner formula, I = I0exp[−Dg^2γ^2 δ^2(∆ − δ/3)] [39], where I0 is the echo intensity in the absence of the field gradient pulse, γ = 2.675 × 10^8 rad T^−1 s^−1 is the gyromagnetic ratio of the ^1H nucleus, δ is the duration of the field gradient pulse, and ∆ is the time period between two field gradient pulses. […] The spectra were processed and analyzed using Topspin 3.2 (Bruker, Billerica, MA, USA).

[2] = test system: lipopolysaccharide (LPS) E. coli 055:B5; test: Isothermal titration calorimetry, binding to LPS; conditions: ITC, two sets of sites model
Procedure: Isothermal titration calorimetry (ITC) experiments were carried out at 298.15 K using an AutoITC isothermal titration calorimeter (MicroCal Inc., GE Healthcare, Northampton, MA, USA) equipped with a 1.4491 mL sample cell and a reference cell. A typical ITC experiment involved a series of consecutive injections of 10.02 µL aliquots of the titrant (2 µL for the first injection only) into the reaction cell, at an interval of 4 min. The stirrer speed was constantly kept at 300 rpm to provide thorough mixing inside the reaction cell. Three types of ITC experiments were performed. These included lipopeptides binding to POPG, POPC, and LPS. […] Final results were evaluated with an ITC module for ORIGIN 7 software, provided by MicroCal, Inc. (Northampton, MA, USA). The binding constant, stoichiometry, and enthalpy of interactions were directly determined from ITC experiment by fitting one of the built-in curve fitting models to the experimental data points. Changes in entropy (∆S°) and the Gibbs free energy (∆G°) were calculated from the following equation: ∆G^°=−RTln(55.5Ka)=∆H^°−T∆S^° where 55.5 is the molar concentration of water, R is the gas constant (1.986 cal·mol^−1·K^−1), and T is the absolute temperature.

S. epidermidis = test: LIVE/DEAD SYTO9/PI bacterial viability staining, fluorescence microscopy; format: cell-based, Staphylococcus epidermidis; conditions: 8, 16 and 32 µg/mL (1×, 2×, 4× MIC), regardless of concentration; at least two independent replicates
Procedure: Bacteria were inoculated in the Luria–Bertani medium and cultured with shaking at 37 °C up to the early exponential phase (A600 = 0.1). Then, 1.5 mL of the cultures were transferred to 5 mL Eppendorf tubes and treated with suitable peptides added at concentrations of 1×, 2×, or 4× MIC. For the negative control, bacteria were treated with a pure vehicle (water). Next, the cells were cultured for 1 or 2 h, as indicated. To obtain a positive control, at the end of the incubation, one portion of bacteria was collected and suspended in 200 µL of 70% ethanol for 5 min. After incubation, bacteria were collected by centrifugation (10 min, 3000× g) and washed twice with 0.85% NaCl. To determine membrane integrity, bacteria were stained with a LIVE/DEAD™ BacLight™ Bacterial Viability Kit (Thermo Fisher Scientific, Waltham, MA, USA) containing two dyes, i.e., a bacterial membrane permeable SYTO9 (green fluorescence) and an impermeable propidium iodide (red fluorescence) that stains only bacteria with damaged membrane. The staining was performed according to the manufacturer instructions. Then, bacteria were collected by centrifugation and washed twice with 0.85% NaCl. Bacteria pellets were suspended in 10 µL of 0.85% NaCl. Next, 3 µL of each suspension were spotted on agarose pads, covered with coverslips and immediately imaged using fluorescence microscope (Leica DMI4000B) with 100× objective. […]

| SMILES | first breakpoint of self-diffusion coefficient vs. concentration (premicellar state) [1] | second breakpoint of self-diffusion coefficient vs. concentration (micellar state) [1] | pKITC1, LPS E. coli 055:B5 ([2]; site 1) | pKITC2, LPS E. coli 055:B5 ([2]; site 2) | membrane integrity of S. epidermidis cells (SYTO9/PI staining) (S. epidermidis) |
| --- | --- | --- | --- | --- | --- |
| CCCCCCCCCCCCCCCC(=O)NCCC[C@H](NC(=O)[C@@H](N)CCCCN)C(=O)N[C@@H](CCCCN)C(N)=O [K(OC16)K-NH2] | around 6 mM | around 9 mM |  |  |  |
| CCCCCCCCCCCCCCCC(=O)NCCCC[C@H](NC(=O)[C@H](CCCCN)NC(=O)[C@@H](N)CCCCN)C(=O)N[C@@H](CCCCN)C(=O)N[C@@H](CCCCN)C(N)=O [KK(KC16)KK-NH2] (H-KKK(Palmitoyl)KK-NH2) |  |  | 7.67 ± 0.29 | 6.38 ± 0.14 | stained red |
